# Results reported in patent US20100331305A1, “OXO-HETEROCYCLE FUSED PYRIMIDINE COMPOUNDS, COMPOSITIONS AND METHODS OF USE” (Genentech, Inc., priority 2009, published 2010).
# “And” between values parts separate entries of the source, which are not always exact repeats. Identical values can stand only once.
# Key:
# PC3 cells = test: In vitro cell proliferation assay; format: cell-based, human; details: values tied to compounds by order of Table 1
# Method in brief: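 PC3 (or MDAMB361.1) cells, ~10^3/well, settled overnight, then exposed to compound for 3 days; viability read by CellTiter-Glo luminescence (RLU). Alternatively, 4-day compound exposure followed by Alamar Blue for 6 h, fluorescence 544/590 nm; EC50 from sigmoidal dose-response fit.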
# [1] = biological target: mTOR enzyme (mTOR(1360-2549)+GBL) (Homo sapiens, UniProt P42345); test: In vitro mTOR kinase assay (TR-FRET); format: biochemical; details: 0.25 nM mTOR+GBL, 8 uM ATP; values tied to compounds by order of Table 1; 'x or y' = two alternative values for separated diastereomers of unassigned stereochemistry; read-out: activity level (Ki) in the mTOR kinase assay
# Chain of mTOR enzyme (mTOR(1360-2549)+GBL) (P42345 1360-2549, species assumed): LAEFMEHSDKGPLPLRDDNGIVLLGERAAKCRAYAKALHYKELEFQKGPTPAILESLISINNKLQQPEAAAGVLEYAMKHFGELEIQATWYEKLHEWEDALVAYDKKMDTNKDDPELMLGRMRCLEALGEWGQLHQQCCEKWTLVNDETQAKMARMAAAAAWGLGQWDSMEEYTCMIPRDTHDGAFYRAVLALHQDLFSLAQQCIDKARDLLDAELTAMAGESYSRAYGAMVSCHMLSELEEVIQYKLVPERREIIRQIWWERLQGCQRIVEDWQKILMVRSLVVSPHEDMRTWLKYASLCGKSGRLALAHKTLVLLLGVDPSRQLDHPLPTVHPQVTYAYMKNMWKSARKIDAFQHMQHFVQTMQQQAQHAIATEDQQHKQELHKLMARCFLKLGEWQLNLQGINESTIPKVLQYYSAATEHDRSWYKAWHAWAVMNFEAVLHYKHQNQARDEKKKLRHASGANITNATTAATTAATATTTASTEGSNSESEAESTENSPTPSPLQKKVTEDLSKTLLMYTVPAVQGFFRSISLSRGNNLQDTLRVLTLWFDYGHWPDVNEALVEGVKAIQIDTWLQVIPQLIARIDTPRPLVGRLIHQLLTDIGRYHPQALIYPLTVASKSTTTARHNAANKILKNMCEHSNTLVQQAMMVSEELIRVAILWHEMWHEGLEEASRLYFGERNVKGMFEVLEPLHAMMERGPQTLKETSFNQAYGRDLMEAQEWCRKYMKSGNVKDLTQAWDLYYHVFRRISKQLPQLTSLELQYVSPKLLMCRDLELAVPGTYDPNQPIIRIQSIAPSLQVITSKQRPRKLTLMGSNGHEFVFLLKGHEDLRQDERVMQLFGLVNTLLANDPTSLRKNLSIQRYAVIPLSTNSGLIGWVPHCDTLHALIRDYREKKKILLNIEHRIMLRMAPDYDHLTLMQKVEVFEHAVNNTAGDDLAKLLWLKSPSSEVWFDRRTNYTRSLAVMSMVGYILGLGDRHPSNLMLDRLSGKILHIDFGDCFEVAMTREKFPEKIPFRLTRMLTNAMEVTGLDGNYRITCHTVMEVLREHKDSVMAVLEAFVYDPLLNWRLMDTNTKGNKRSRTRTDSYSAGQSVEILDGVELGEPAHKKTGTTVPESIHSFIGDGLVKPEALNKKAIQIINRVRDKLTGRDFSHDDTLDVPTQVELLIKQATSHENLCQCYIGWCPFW
# Chain of mTOR enzyme (mTOR(1360-2549)+GBL) (Q9BVC4 whole entry partner, species assumed): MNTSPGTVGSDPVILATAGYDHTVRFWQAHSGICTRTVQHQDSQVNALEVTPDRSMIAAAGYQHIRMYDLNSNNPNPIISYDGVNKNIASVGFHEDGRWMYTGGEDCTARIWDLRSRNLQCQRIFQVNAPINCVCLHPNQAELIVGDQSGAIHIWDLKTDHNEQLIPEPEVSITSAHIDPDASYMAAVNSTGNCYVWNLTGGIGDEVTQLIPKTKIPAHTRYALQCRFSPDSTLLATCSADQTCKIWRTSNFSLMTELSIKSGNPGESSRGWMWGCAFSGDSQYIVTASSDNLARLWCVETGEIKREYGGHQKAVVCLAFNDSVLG
# Method in brief: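 Compounds were tested in 10-point dose curves from 10 uM top final concentration. The reaction was stopped with 2 nM Tb-anti-p4E-BP1 (T37/T46) antibody plus 10 mM EDTA for 30 minutes, and phospho-4E-BP1 was detected by TR-FRET. Ki apparent was fitted with the Morrison ATP-competitive tight-binding equation.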
# [2] = Homo sapiens, PC-3, with PC3 cells
SMILES,EC50 (PC3 cells; [2]),Ki [1],EC50 (PC3 cells; with PC3 cells)
"C[C@H]1COCCN1c1nc(-c2ccc(NC(=O)NC3(CO)CC3)cc2)nc2c1CCC1(CC1)O2 [Example 70, (S)-1-(1-(hydroxymethyl)cyclopropyl)-3-(4-(4′-(3-methylmorpholino)-5′,6′-dihydrospiro[cyclopropane-1,7′-pyrano[2,3-d]pyrimidine]-2′-yl)phenyl)urea]",1600 nM,20 nM,–
"CNC(=O)Nc1ccc(-c2nc3c(c(N4CCOC[C@@H]4C)n2)COCC3)cc1 [Example 58, (S)-1-methyl-3-(4-(4-(3-methylmorpholino)-7,8-dihydro-5H-pyrano[4,3-d]pyrimidin-2-yl)phenyl)urea]",173 nM,7 nM,–
"C[C@H]1COCCN1c1nc(-c2ccc(Nc3cccc(=O)[nH]3)cc2)nc2c1CCCO2 [Example 35, (S)-6-(4-(4-(3-methylmorpholino)-6,7-dihydro-5H-pyrano[2,3-d]pyrimidin-2-yl)phenylamino)pyridin-2(1H)-one]",236 nM,2 nM,–
"C[C@H]1COCCN1c1nc(-c2ccc3onc(N)c3c2)nc2c1COC2(C)C [Example 121, (S)-5-(7,7-dimethyl-4-(3-methylmorpholino)-5,7-dihydrofuro[3,4-d]pyrimidin-2-yl)benzo[d]isoxazol-3-amine]",1300 nM,390 nM,–
"C[C@H]1COCCN1c1nc(-c2ccc(NC(=O)NC[C@H](O)CO)cc2)nc2c1CCC1(CC1)O2 [Example 68, 1-((S)-2,3-dihydroxypropyl)-3-(4-(4′-((S)-3-methylmorpholino)-5′,6′-dihydrospiro[cyclopropane-1,7′-pyrano[2,3-d]pyrimidine]-2′-yl)phenyl)urea]",804 nM,3 nM,–
"CC[C@H]1COCCN1c1nc(-c2ccc(Nc3cccc(=O)[nH]3)cc2)nc2c1COCC2 [Example 5, (S)-6-(4-(4-(3-ethylmorpholino)-7,8-dihydro-5H-pyrano[4,3-d]pyrimidin-2-yl)phenylamino)pyridin-2(1H)-one]",297 nM,2 nM,–
"CNc1nc2cc(-c3nc(N4CCOC[C@@H]4C)c4c(n3)C(C)(C)OC4)ccc2[nH]1 [Example 125, (S)-5-(7,7-dimethyl-4-(3-methylmorpholino)-5,7-dihydrofuro[3,4-d]pyrimidin-2-yl)-N-methyl-1H-benzo[d]imidazol-2-amine]",562 nM,10 nM,–
"C[C@H]1COCCN1c1nc(-c2ccc(Nc3nccc(=O)[nH]3)cc2)nc2c1CCCO2 [Example 34, (S)-2-(4-(4-(3-methylmorpholino)-6,7-dihydro-5H-pyrano[2,3-d]pyrimidin-2-yl)phenylamino)pyrimidin-4(3H)-one]",45 nM,1 nM,–
"C[C@H]1COCCN1c1nc(-c2ccc(NC(=O)NCCO)cc2)nc2c1CCC1(CC1)O2 [Example 65, (S)-1-(2-hydroxyethyl)-3-(4-(4′-(3-methylmorpholino)-5′,6′-dihydrospiro[cyclopropane-1,7′-pyrano[2,3-d]pyrimidine]-2′-yl)phenyl)urea]",19 nM,0.4 nM,–
"C[C@H]1COCCN1c1nc(-c2ccc(NC(=O)NC3COC3)cc2)nc2c1CCCO2 [Example 32, (S)-1-(4-(4-(3-methylmorpholino)-6,7-dihydro-5H-pyrano[2,3-d]pyrimidin-2-yl)phenyl)-3-(oxetan-3-yl)urea]",325 nM,4 nM,–
COCC[C@]1(C)OCc2c(N3CCOC[C@@H]3C)nc(-c3ccc4onc(N)c4c3)nc21 [Example 119 hq^1],203 nM,4300 nM and 1500 nM,–
"CCC[C@@]1(C)OCc2c(N3CCOCC3)nc(-c3ccc(NC(=O)NCC)cc3)nc21 [Example 73 ef (R), (R)-1-ethyl-3-(4-(7-methyl-4-morpholino-7-propyl-5,7-dihydrofuro[3,4-d]pyrimidin-2-yl)phenyl)urea]",92 nM,4 nM,–
"CCNC(=O)Nc1ccc(-c2nc3c(c(N4CCOC[C@@H]4C)n2)CCOC3)cc1 [Example 13 al, (S)-1-ethyl-3-(4-(4-(3-methylmorpholino)-6,8-dihydro-5H-pyrano[3,4-d]pyrimidin-2-yl)phenyl)urea]",194 nM,2 nM,–
"CNC(=O)Nc1ccc(-c2nc3c(c(N4CCOC[C@@H]4C)n2)CCC2(CC2)O3)cc1 [Example 56, (S)-1-methyl-3-(4-(4′-(3-methylmorpholino)-5′,6′-dihydrospiro[cyclopropane-1,7′-pyrano[2,3-d]pyrimidine]-2′-yl)phenyl)urea]",37 nM,1 nM,–
"CCNC(=O)Nc1ccc(-c2nc3c(c(N4CCOC[C@@H]4C)n2)COC(COCc2ccccc2)C3)cc1 (stereo partly drawn) [1-(4-(7-(benzyloxymethyl)-4-((S)-3-methylmorpholino)-7,8-dihydro-5H-pyrano[4,3-d]pyrimidin-2-yl)phenyl)-3-ethylurea]",585 nM,16 nM,–
"C[C@H]1COCCN1c1nc(-c2ccc(Nc3nccc(=O)[nH]3)cc2)nc2c1COCC2 [Example 28, (S)-2-(4-(4-(3-methylmorpholino)-7,8-dihydro-5H-pyrano[4,3-d]pyrimidin-2-yl)phenylamino)pyrimidin-4(3H)-one]",194 nM,2 nM,–
"CC1(C)OCc2c(N3CCOCC3)nc(-c3ccc4nc(N)oc4c3)nc21 [Example 115, 6-(7,7-dimethyl-4-morpholino-5,7-dihydrofuro[3,4-d]pyrimidin-2-yl)benzo[d]oxazol-2-amine]",146 nM,269 nM,–
"CC1(C)OCc2c(N3CCOCC3)nc(-c3ccc4oc(N)nc4c3)nc21 [Example 114, 5-(7,7-dimethyl-4-morpholino-5,7-dihydrofuro[3,4-d]pyrimidin-2-yl)benzo[d]oxazol-2-amine]",2500 nM,124 nM,–
COCC[C@]1(C)OCc2c(N3CCOC[C@@H]3C)nc(-c3ccc4nc(N)oc4c3)nc21 [Example 112 hg^1],671 nM,255 nM and 410 nM,–
"CCNC(=O)Nc1ccc(-c2nc(N3CCOC[C@@H]3C)c3c(n2)C(C)(CCn2ccnc2)OC3)cc1 (single isomer, unassigned) [Example 80 es (S)]",–,2 nM,316 nM
"C[C@H]1COCCN1c1nc(-c2ccc(NC(=O)NC[C@@H](O)CO)cc2)nc2c1CCC1(CC1)O2 [Example 69, 1-((R)-2,3-dihydroxypropyl)-3-(4-(4′-((S)-3-methylmorpholino)-5′,6′-dihydrospiro[cyclopropane-1,7′-pyrano[2,3-d]pyrimidine]-2′-yl)phenyl)urea]",1200 nM,2 nM,–
"CC1(C)OCc2c(N3C[C@H]4C[C@@H]3CO4)nc(-c3cnc(N)nc3)nc21 [Example 105, 5-(4-((1R,4R)-2-oxa-5-azabicyclo[2.2.1]heptan-5-yl)-7,7-dimethyl-5,7-dihydrofuro[3,4-d]pyrimidin-2-yl)pyrimidin-2-amine]",17 nM,88 nM,–
"Cc1coc(NC(=O)Nc2ccc(-c3nc4c(c(N5CCOC[C@@H]5C)n3)CCC3(CC3)O4)cc2)n1 [Example 53, (S)-1-(4-(4′-(3-methylmorpholino)-5′,6′-dihydrospiro[cyclopropane-1,7′-pyrano[2,3-d]pyrimidine]-2′-yl)phenyl)-3-(4-methyloxazol-2-yl)urea]",233 nM,1 nM,–
"CCC[C@]1(C)OCc2c(N3CCOCC3)nc(-c3ccc(NC(=O)NCC)cc3)nc21 [Example 73 ef (S), (S)-1-ethyl-3-(4-(7-methyl-4-morpholino-7-propyl-5,7-dihydrofuro[3,4-d]pyrimidin-2-yl)phenyl)urea]",35 nM,2 nM,–
